According to US20210392889A1, “COMPOSITIONS COMPRISING PYRIDINE CARBOXYLATE HERBICIDES WITH PDS INHIBITOR HERBICIDES” (Corteva Agriscience LLC, priority 2018, published 2021):

Legend:
[1] = system: giant foxtail (SETFA, Setaria faberi); test: Greenhouse postemergence herbicidal effect, visual injury after 20-22 d; assay type: in vivo; conditions: Table 4
Text: (§1) Seeds of the desired test plant species were planted in a 90:10% v/v (volume/volume) mixture of PRO-MIX® BX (Premier Tech Horticulture, Quakertown, Pa., USA) and PROFILE® GREENS GRADE™ (Profile Products LLC, Buffalo Grove, Ill., USA) planting mixture, which typically has a pH of 5.2 to 6.2 and an organic matter content of at least 50 percent, in plastic pots with a surface area of 103.2 square centimeters (cm^2). In some aspects, to ensure good germination and healthy plants, a fungicide treatment and/or other chemical or physical treatment was applied. The plants were grown for 7-36 days (d) in a greenhouse with an approximate 14-hour (h) photoperiod which was maintained at about 23° C. during the day and 22° C. during the night. Nutrients and water were added on a regular basis and supplemental lighting was provided with overhead metal halide 1000-Watt lamps as necessary. The plants were employed for testing when they reached the second or third true leaf stage.
(§2) Emulsifiable concentrates of each of each pyridine carboxylate herbicide (Compound A or Compound B) were prepared at 100 grams acid equivalent per liter (g ae/L). The emulsifiable concentrates also included a safener, cloquintocet-mexyl, at 120 grams active ingredient per liter (g ai/L). An aliquot of each emulsifiable concentrate was placed in a 25 mL glass vial and diluted with an aqueous mixture of 1.25% (v/v) ACTIROB® B esterified rapeseed oil (Bayer Crop Science, Research Triangle Park, N.C., USA) or MSO® Concentrate with LECI-TECH® methylated soybean oil (Loveland Products, Loveland, Colo., USA) to obtain concentrated stock solutions at the highest application rate for each herbicide, based upon a 12 milliliter (mL) application volume at a rate of 187 liters per hectare (L/ha). The concentrated stock solutions were further diluted with an aqueous mixture of 1.25% v/v ACTIROB® B or MSO® Concentrate with LECI-TECH® to obtain stock solutions at reduced application rates for each herbicide. Spray solutions of the herbicide combinations (Compound A or Compound B plus PDS inhibitor herbicide) were prepared by adding weighed amounts or aliquots of the PDS inhibitor herbicide to the stock solutions of Compound A or Compound B to form 12-mL spray solutions in two- or three-way combinations.
(§3) The spray solutions were applied to the plant material with an overhead Mandel track sprayer equipped with 8002E nozzles calibrated to deliver 187 L/ha over an application area of 0.503 square meters (m^2) at a spray height of 18 inches ([…] centimeters (cm)) above the average plant canopy. Control plants were sprayed in the same manner with the solvent blank. All pyridine carboxylate herbicide (component a) application rates are given as “g ae/ha” and all PDS inhibitor herbicide (component b) application rates are given as “g ai/ha.”
(§4) The treated plants and control plants were placed in a greenhouse as described above and watered by sub-irrigation to prevent wash-off of the test compounds. After 20-22 d, the condition of the test plants as compared with that of the control plants was determined visually and scored on a scale of 0 to 100 percent where 0 corresponds to no injury and 100 corresponds to complete kill.

[2] = system: wild pansy (VIOTR, Viola tricolor); test: as above; assay type: in vivo
Text: as §1, §2, §3, §4

[3] = system: common sunflower (HELAN, Helianthus annuus); test: as above; assay type: in vivo
Text: as §1, §2, §3, §4

[4] = system: pigweed (AMARE, Amaranthus retroflexus); test: as above; assay type: in vivo; conditions: for visual injury: Table 1
Text: as §1, §2, §3, §4

[5] = system: Italian ryegrass (LOLMU, Lolium multiflorum.); test: as above; assay type: in vivo; conditions: Table 4
Text: as §1, §2, §3, §4

[6] = system: wild mustard (SINAR, Sinapis arvensis); test: as above; assay type: in vivo; conditions: for visual injury: Table 1
Text: as §1, §2, §3, §4

[7] = system: poinsettia (EPHHL, Euphorbia heterophylla); test: as above; assay type: in vivo
Text: as §1, §2, §3, §4

[8] = system: velvetleaf (ABUTH, Abutilon theophrasti); test: as above; assay type: in vivo
Text: as §1, §2, §3, §4

[9] = system: broad-leaf dock (RUMOB, Rumex obtusifolius); test: as above; assay type: in vivo; conditions: Table 4
Text: as §1, §2, §3, §4

[10] = system: winter rape (BRSNW, Brassica napus); test: as above; assay type: in vivo; conditions: for visual injury: Table 1
Text: as §1, §2, §3, §4

spring barley (HORVS) = test: Greenhouse postemergence phytotoxicity on crop, visual injury after 20-22 d; assay type: in vivo, Hordeum vulgare; conditions: for visual injury: Table 1
Text: as §1, §2, §3, §4

N#CCOC(=O)c1nc(-c2ccc3cc[nH]c3c2F)c(F)c(N)c1Cl [Compound A, cyanomethyl 4-amino-3-chloro-5-fluoro-6-(7-fluoro-1H-indol-6-yl)pyridine-2-carboxylate]
visual injury Obs ([1]; 7.5 g/ha): 70% | visual injury Obs ([1]; 10 g/ha): 70% | visual injury Obs ([2]; 7.5 g/ha, Table 4): 10% | visual injury Obs ([2]; 7.5 g/ha, Table 5): 3% | visual injury Obs ([2]; 7.5 g/ha, Table 6): 3% | visual injury Obs ([2]; 10 g/ha, Table 4): 18% | visual injury Obs ([2]; 10 g/ha, Table 5): 3% | visual injury Obs ([2]; 10 g/ha, Table 6): 3% | visual injury Obs ([3]; 7.5 g/ha, Table 5): 83% | visual injury Obs ([3]; 7.5 g/ha, Table 6): 83% | visual injury Obs ([3]; 10 g/ha, Table 5): 88% | visual injury Obs ([3]; 10 g/ha, Table 6): 88% | visual injury ([4]; 7.5 g/ha): 78% | visual injury Obs ([4]; 7.5 g/ha, Table 3): 70% | visual injury Obs ([4]; 7.5 g/ha, Table 5): 80% | visual injury Obs ([4]; 7.5 g/ha, Table 6): 80% | visual injury Obs ([4]; 7.5 g/ha, Table 7): 70% | visual injury Obs ([4]; 7.5 g/ha, Table 8): 78% | visual injury ([4]; 10 g/ha): 73% | visual injury Obs ([4]; 10 g/ha, Table 3): 98% | visual injury Obs ([4]; 10 g/ha, Table 5): 85% | visual injury Obs ([4]; 10 g/ha, Table 6): 85% | visual injury Obs ([4]; 10 g/ha, Table 7): 90% | visual injury Obs ([4]; 10 g/ha, Table 8): 78% | visual injury Obs ([4]; 15 g/ha, Table 8): 83% | visual injury Obs ([5]; 7.5 g/ha): 0% | visual injury Obs ([5]; 10 g/ha): 0% | visual injury ([6]; 7.5 g/ha): 88% | visual injury Obs ([6]; 7.5 g/ha, Table 2): 88% | visual injury Obs ([6]; 7.5 g/ha, Table 3): 85% | visual injury Obs ([6]; 7.5 g/ha, Table 7): 85% | visual injury ([6]; 10 g/ha): 90% | visual injury Obs ([6]; 10 g/ha, Table 2): 92% | visual injury Obs ([6]; 10 g/ha, Table 3): 90% | visual injury Obs ([6]; 10 g/ha, Table 7): 88% | visual injury Obs ([7]; 7.5 g/ha, Table 5): 91% | visual injury Obs ([7]; 7.5 g/ha, Table 6): 91% | visual injury Obs ([7]; 10 g/ha, Table 5): 83% | visual injury Obs ([7]; 10 g/ha, Table 6): 83% | visual injury Obs ([8]; 7.5 g/ha, Table 4): 68% | visual injury Obs ([8]; 7.5 g/ha, Table 5): 40% | visual injury Obs ([8]; 7.5 g/ha, Table 6): 40% | visual injury Obs ([8]; 10 g/ha, Table 4): 78% | visual injury Obs ([8]; 10 g/ha, Table 5): 48% | visual injury Obs ([8]; 10 g/ha, Table 6): 48% | visual injury Obs ([9]; 7.5 g/ha): 8% | visual injury Obs ([9]; 10 g/ha): 10% | visual injury ([10]; 7.5 g/ha): 35% | visual injury Obs ([10]; 7.5 g/ha, Table 7): 63% | visual injury Obs ([10]; 7.5 g/ha, Table 8): 60% | visual injury ([10]; 10 g/ha): 43% | visual injury Obs ([10]; 10 g/ha, Table 7): 68% | visual injury Obs ([10]; 10 g/ha, Table 8): 60% | visual injury Obs ([10]; 15 g/ha, Table 8): 75% | visual injury (spring barley (HORVS); 7.5 g/ha): 0% | visual injury Obs (spring barley (HORVS); 7.5 g/ha, Table 2): 8% | visual injury Obs (spring barley (HORVS); 7.5 g/ha, Table 3): 0% | visual injury Obs (spring barley (HORVS); 7.5 g/ha, Table 7): 0% | visual injury Obs (spring barley (HORVS); 7.5 g/ha, Table 8): 8% | visual injury (spring barley (HORVS); 10 g/ha): 0% | visual injury Obs (spring barley (HORVS); 10 g/ha, Table 2): 0% | visual injury Obs (spring barley (HORVS); 10 g/ha, Table 3): 0% | visual injury Obs (spring barley (HORVS); 10 g/ha, Table 7): 0% | visual injury Obs (spring barley (HORVS); 10 g/ha, Table 8): 5% | visual injury Obs (spring barley (HORVS); 15 g/ha, Table 8): 3%
